How the values were obtained:
[1] = system: HL-60 cells (NADPH oxidase / respiratory burst); test: Prevention of compactin-inhibition of FMLP-stimulated O2- formation in HL-60 cells by mevalonic acid and other supplements; assay type: cell-based; conditions: for block in NADPH oxidase activity / cellular responsiveness after supplementation: compactin-treated HL-60 cells, exogenous supplement
Procedure: (§1) HL-60 cells were maintained in stationary culture in RPMI 1640 medium (Gibco, Grand Island, NY) containing 10% fetal bovine serum at 37° C in an atmosphere of 95 air and 5% CO2. The cells (about 8×10^5 /ml) were differentiated into neutrophil-like cells by treatment with 1.3% DMSO for six days (Harris, et al., J. Leukocyte Biol. 37: 407-422 (1985)). The cells were treated with the indicated levels of compactin or lovastatin by addition of a 1,000-fold concentrated stock solution to the appropriate concentration on day 4 of differentiation. […] In studies of the protective effect of mevalonic acid, the compound was added as the mevalonolactone (Sigma Chemical Co., St. Louis, MO) at a concentration of 1 mM to the cell culture on days 4 to 6. Similarly, cholesterol was added in the form of LDL prepared according to the method of Curtiss and Edgington (Curtiss, et al., J. Biol. Chem. 257: 15213-15221 (1991)) at a final concentration of 50 μg/ml; ubiquinone (Sigma Chemical Co., St. Louis, MO) was added as Coenzyme Q-10 at a final concentration of 0.5 mM; and dolichol (Sigma Chemical Co., St. Louis, MO) was added as a dispersion in phosphatidylcholine at a final concentration of 0.5 mM (Cutts, et al., J. Cell Physiol. 139: 550-555 (1989)).
O2 --formation by HL-60 cells was assessed by the SOD-sensitive reduction of cytochrome c. Cells were suspended at 1×10^7 /ml in Krebs-Ringer Hepes buffer with 5.5 mM glucose (KRHG) and 50-100μl of cells were added to a cuvette containing 100 μM cytochrome c (type III, Sigma Chemical Co., St. Louis, MO), ±300 μg/ml SOD (Sigma Chemical Co., St. Louis, MO) in 700-750 μl KRHG. Cytochalasin b (Sigma Chemical Co., St. Louis, MO) was added to a final concentration of 5 μg/ml, and the cells were incubated at 37° C. for five minutes while a stable baseline at a wavelength of 550 nm was obtained. O2 --formation was initiated by the addition of 1 μM N-formylmethionylleucylphenylalanine (FMLP; Sigma Chemical Co., St. Louis, MO) or 1μg/ml phorbol myristate acetate (PMA; Sigma Chemical Co., St. Louis, MO). Cytochrome c reduction at 550nm was continuously monitored and maximal rate and extent of the reaction calculated.
Inhibition of protein isoprenylation can interfere with LMWG function without inhibiting overall cellular function (Maltese, supra (1990)). Since compactin inhibits at the enzymatic step preceding mevalonic acid synthesis, one should be able to reverse effects of compactin due specifically to inhibition of this pathway by addition of exogenous mevalonic acid.

HL-60 cells = test: HL-60 cell viability by propidium iodide uptake (flow cytometry)
Procedure: as §1, with “The cells were treated with the indicated levels of compactin or lovastatin by addition of a 1,000-fold concentrated stock solution to the appropriate concentration on day 4 of differentiation.” left out
Cell viability was determined by uptake of propidium iodide (537-059; Calbiochem-Behring Corp., La Jolla, CA), detected from the emission fluorescence at 625/35 nm using a DM560 dichronic mirror (Krishan, J. Cell. Biol. 66: 188-192 (1975)). Expression of N-formyl peptide receptor was determined using fluorescein-labeled N-CHONle-Leu-Phe-Nle-Tyr-Lys (Molecular Probes, Inc., Eugene, OR) essentially by the method of Sklar and Finney (Sklar and Finney, Cytometry 3: 161-165 (1982)). Specificity of ligand binding was determined in the presence of 4 mM unlabeled T-boc peptide. CD14 expression was determined using monoclonal antibody 3C10 at a dilution of 1:1,000 (see Goyert and Ferrero, in Leucocyte Typing III: White Cell Differentiation Antigens, McMichael, ed., Oxford Univ. Press, NY, pp. 613-619 (1988)), with detection using a fluorescein-labeled secondary antibody. Flow cytometric analyses were performed on a FACSIV (registered trademark of Becton-Dickinson, San Jose, CA) equipped with a 2W argon laser (Coherent Inc., Palo Alto, collected in list mode and analyzed using the Consort 30 program (Becton-Dickinson, San Jose, CA) after collecting 10,000 events.

[2] = system: NADPH oxidase in HL-60 cells; test: Inhibition of NADPH oxidase activation / O2- generation in HL-60 cells (stimulus not singled out); assay type: cell-based
Procedure: as §1, with “(1989)). O2 --formation by HL-60 cells was assessed by the SOD-sensitive reduction of cytochrome c. Cells were suspended at 1×10^7 /ml in Krebs-Ringer Hepes buffer with 5.5 mM glucose (KRHG) and 50-100μl of cells were added to a cuvette containing 100 μM cytochrome c (type III, Sigma Chemical Co., St. Louis, MO), ±300 μg/ml SOD (Sigma Chemical Co., St. Louis, MO) in 700-750 μl KRHG. Cytochalasin b (Sigma Chemical Co., St. Louis, MO) was added to a final concentration of 5 μg/ml, and the cells were incubated at 37° C. for five minutes while a stable baseline at a wavelength of 550 nm was obtained. O2 --formation was initiated by the addition of 1 μM N-formylmethionylleucylphenylalanine (FMLP; Sigma Chemical Co., St. Louis, MO) or 1μg/ml phorbol myristate acetate (PMA; Sigma Chemical Co., St. Louis, MO). Cytochrome c reduction at 550nm was continuously monitored and maximal rate and extent of the reaction calculated.” for “(1989)).”

Question: With `CC(C)CCC[C@@H](C)[C@H]1CC[C@H]2[C@@H]3CC=C4C[C@@H](O)CC[C@]4(C)[C@H]3CC[C@]12C` [cholesterol] as the compound, how does the “effect on compactin blockade of oxidase activity” value (shortened to “effect on compactin blockade”) ([1]; 50 μg/ml LDL cholesterol) read?
Answer: Its value is “no effect”.

Question: What about the “FMLP-stimulated O2- formation, Extent” value ([1]; 50 μg/ml cholesterol, no compactin, n = 2) of the same compound?
Answer: The value was 99 % of control.

Question: What about the “FMLP-stimulated O2- formation, Rate” value ([1]; 50 μg/μl cholesterol, no compactin, n = 2) of the same compound?
Answer: The value was 90 % of control.

Question: What about the “block in NADPH oxidase activity / cellular responsiveness after supplementation” value [1] of the same compound?
Answer: The value was “apparently not overcome”.

Question: What does the source list for `CC[C@H](C)C(=O)O[C@H]1C[C@@H](C)C=C2C=C[C@H](C)[C@H](CC[C@@H]3C[C@@H](O)CC(=O)O3)[C@H]21` [lovastatin]?
Answer: cell viability when inhibitor added at day 1 of differentiation (HL-60 cells): somewhat decreased; inhibition of NADPH oxidase activation, effective concentrations [2]: micromolar concentrations; ability of HL-60 cells to generate O2- ([2]; response to receptor stimuli and downstream activators): markedly inhibited

Question: How did the “FMLP-stimulated O2- formation, Extent” value ([1]; 1 mM mevalonate, no compactin) turn out when `C[C@@](O)(CCO)CC(=O)O` [mevalonic acid] was run?
Answer: Its value is 111 ± 8.0 % of control.

Question: What about the “FMLP-stimulated O2- formation, Rate” value ([1]; 1 mM mevalonate, no compactin) of the same compound?
Answer: The value was 120 ± 10 % of control.

Question: And the “reversal of compactin inhibition of O2- formation” value ([1]; 1 mM mevalonic acid (as mevalonolactone), 4 or 10 μM compactin)?
Answer: The value was “nearly completely reversed”.

Question: And the “block in NADPH oxidase activity / cellular responsiveness after supplementation” value [1]?
Answer: The value was “totally restored”.

Question: What about the “effect on control rate or extent of O2- formation” value ([1]; no compactin) of the same compound?
Answer: The value was “no consistent effect”.

Question: How did the “effect on compactin blockade” value ([1]; 0.5 mM ubiquinone) turn out when `COC1=C(OC)C(=O)C(C/C=C(\C)CC/C=C(\C)CC/C=C(\C)CC/C=C(\C)CC/C=C(\C)CC/C=C(\C)CC/C=C(\C)CC/C=C(\C)CC/C=C(\C)CCC=C(C)C)=C(C)C1=O` [ubiquinone] was run?
Answer: The value was “no effect”.

Question: And the “block in NADPH oxidase activity / cellular responsiveness after supplementation” value [1]?
Answer: Its value is “apparently not overcome”.

Question: With dolichol as the compound, how does the “effect on compactin blockade” value ([1]; 0.5 mM dolichol) read?
Answer: Its value is “no effect”.

Question: What about the “block in NADPH oxidase activity / cellular responsiveness after supplementation” value [1] of the same compound?
Answer: Its value is “apparently not overcome”.

From patent US5244916A, “Inhibition of respiratory burst using posttranslational modification inhibitors” (The Scripps Research Institute, priority 1992, dated 1993)
